“Also recorded” adds a separate entry of the source.
Columns and labels:
Type in all cases: biochemical
[1] = system: 45 different kinases; assay: Kinase selectivity from screening over 45 different kinases
Protocol: (§1) Kinase screening was performed using a “HotSpot” assay platform commercially available from Reaction Biology Corporation. For this kinase screening, reaction buffers were based on 20 mM Hepes (pH 7.5), 10 mM MgCl2, 1 mM EGTA, 0.02% Brij35, 0.02 mg/mL BSA, 0.1 mM Na3VO4, 2 mM DTT, and 1% DMSO, with supplementary factors necessary for respective kinase reactions added thereto. In each enzyme reaction, […] of each kinase was used together with a fresh reaction buffer and appropriate supplementary factors. A solution of each compound in DMSO was added in a suitable concentration to the reaction buffer. Kinase reaction started with the introduction of […] (specific activity […]) and continued for 2 hours at room temperature.
(§2) 1) Screening of Compounds Over 45 Different Kinases
(§3) Each compound was tested twice at a single dose concentration of 10 μM. […] The reaction was performed with 10 μM ATP.

[2] = target: T1, YES (Homo sapiens, UniProt P07947); assay: HotSpot kinase screening over 45 different kinases, single dose 10 μM; details: single dose concentration of 10 μM, 10 μM ATP
T1 construct: purchased Reaction Biology Corporation
Protocol: as §1, §2, §3

[3] = target: T2, MST4 (Homo sapiens, UniProt Q9P289); assay: as above; details: single dose concentration of 10 μM, 10 μM ATP
T2 construct: purchased Reaction Biology Corporation
Protocol: as §1, §2, §3

[4] = target: T3, LYN (Homo sapiens, UniProt P07948); assay: as above; details: single dose concentration of 10 μM, 10 μM ATP
T3 construct: purchased Reaction Biology Corporation
Protocol: as §1, §2, §3

[5] = target: T4, LCK (Homo sapiens, UniProt P06239); assay: as above; details: single dose concentration of 10 μM, 10 μM ATP
T4 construct: purchased Reaction Biology Corporation
Protocol: as §1, §2, §3

[6] = target: T5, c-Kit (Homo sapiens, UniProt P10721); assay: as above; details: single dose concentration of 10 μM, 10 μM ATP
T5 construct: purchased Reaction Biology Corporation
Protocol: as §1, §2, §3

[7] = target: T6, FLT1 (Homo sapiens, UniProt P17948); assay: as above; details: single dose concentration of 10 μM, 10 μM ATP
T6 construct: purchased Reaction Biology Corporation
Protocol: as §1, §2, §3

[8] = target: T7, HIPK1 (Homo sapiens, UniProt Q86Z02); assay: as above; details: single dose concentration of 10 μM, 10 μM ATP
T7 construct: purchased Reaction Biology Corporation
Protocol: as §1, §2, §3

[9] = target: T8, AKT1 (dPH, S473D) (Homo sapiens, UniProt P31749, S473D); assay: as above; details: single dose concentration of 10 μM, 10 μM ATP
T8 construct: AKT1 (dPH, S473D); purchased Reaction Biology Corporation
Protocol: as §1, §2, §3

[10] = system: RAF1; assay: as above; details: single dose concentration of 10 μM, 10 μM ATP
Protocol: as §1, §2, §3

[11] = target: T9, BRAF (Homo sapiens, UniProt P15056); assay: as above; details: single dose concentration of 10 μM, 10 μM ATP
T9 construct: purchased Reaction Biology Corporation
Protocol: as §1, §2, §3

[12] = target: T10, JAK1 (Homo sapiens, UniProt P23458); assay: as above; details: single dose concentration of 10 μM, 10 μM ATP
T10 construct: purchased Reaction Biology Corporation
Protocol: as §1, §2, §3

[13] = target: T11, DAPK1 (Homo sapiens, UniProt P53355); assay: as above; details: single dose concentration of 10 μM, 10 μM ATP
T11 construct: purchased Reaction Biology Corporation
Protocol: as §1, §2, §3

[14] = target: T12, FYN (Homo sapiens, UniProt P06241); assay: as above; details: single dose concentration of 10 μM, 10 μM ATP
T12 construct: purchased Reaction Biology Corporation
Protocol: as §1, §2, §3

[15] = target: T13, IKKa/CHUK (Homo sapiens, UniProt O15111); assay: as above; details: single dose concentration of 10 μM, 10 μM ATP
T13 construct: purchased Reaction Biology Corporation
Protocol: as §1, §2, §3

[16] = target: T14, ABL1 (Homo sapiens, UniProt P00519); assay: as above; details: single dose concentration of 10 μM, 10 μM ATP
T14 construct: purchased Reaction Biology Corporation
Protocol: as §1, §2, §3

[17] = target: T15, SYK (Homo sapiens, UniProt P43405); assay: as above; details: single dose concentration of 10 μM, 10 μM ATP
T15 construct: purchased Reaction Biology Corporation
Protocol: as §1, §2, §3

[18] = target: T16, RON/MST1R (Homo sapiens, UniProt Q04912); assay: as above; details: single dose concentration of 10 μM, 10 μM ATP
T16 construct: purchased Reaction Biology Corporation
Protocol: as §1, §2, §3

[19] = target: T17, PAK4 (Homo sapiens, UniProt O96013); assay: as above; details: single dose concentration of 10 μM, 10 μM ATP
T17 construct: purchased Reaction Biology Corporation
Protocol: as §1, §2, §3

[20] = target: T18, JNK1a1 (Homo sapiens, UniProt P45983); assay: as above; details: single dose concentration of 10 μM, 10 μM ATP
T18 construct: purchased Reaction Biology Corporation
Protocol: as §1, §2, §3

[21] = target: T19, MEK1 (Homo sapiens, UniProt Q02750); assay: as above; details: single dose concentration of 10 μM, 10 μM ATP
T19 construct: purchased Reaction Biology Corporation
Protocol: as §1, §2, §3

[22] = target: T20, c-MET (Homo sapiens, UniProt P08581); assay: as above; details: single dose concentration of 10 μM, 10 μM ATP
T20 construct: purchased Reaction Biology Corporation
Protocol: as §1, §2, §3

[23] = target: T21, RET (Homo sapiens, UniProt P07949); assay: as above; details: single dose concentration of 10 μM, 10 μM ATP
T21 construct: purchased Reaction Biology Corporation
Protocol: as §1, §2, §3

[24] = target: T22, c-Src (Homo sapiens, UniProt P12931); assay: as above; details: single dose concentration of 10 μM, 10 μM ATP
T22 construct: purchased Reaction Biology Corporation
Protocol: as §1, §2, §3

[25] = compared to enzyme activity in DMSO control

T18 sequence (P45983 1-384 isoform P45983-2): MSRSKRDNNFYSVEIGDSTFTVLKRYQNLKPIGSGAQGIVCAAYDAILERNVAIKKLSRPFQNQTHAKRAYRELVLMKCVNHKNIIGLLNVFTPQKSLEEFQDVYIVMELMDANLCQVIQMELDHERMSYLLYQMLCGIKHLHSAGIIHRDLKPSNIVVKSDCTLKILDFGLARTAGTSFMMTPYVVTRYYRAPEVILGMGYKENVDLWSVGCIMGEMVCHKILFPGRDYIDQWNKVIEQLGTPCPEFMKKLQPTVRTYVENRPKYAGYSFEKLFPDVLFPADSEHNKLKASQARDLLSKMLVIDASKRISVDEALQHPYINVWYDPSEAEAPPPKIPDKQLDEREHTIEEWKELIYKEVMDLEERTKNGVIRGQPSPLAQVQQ
T2 sequence (Q9P289 whole entry): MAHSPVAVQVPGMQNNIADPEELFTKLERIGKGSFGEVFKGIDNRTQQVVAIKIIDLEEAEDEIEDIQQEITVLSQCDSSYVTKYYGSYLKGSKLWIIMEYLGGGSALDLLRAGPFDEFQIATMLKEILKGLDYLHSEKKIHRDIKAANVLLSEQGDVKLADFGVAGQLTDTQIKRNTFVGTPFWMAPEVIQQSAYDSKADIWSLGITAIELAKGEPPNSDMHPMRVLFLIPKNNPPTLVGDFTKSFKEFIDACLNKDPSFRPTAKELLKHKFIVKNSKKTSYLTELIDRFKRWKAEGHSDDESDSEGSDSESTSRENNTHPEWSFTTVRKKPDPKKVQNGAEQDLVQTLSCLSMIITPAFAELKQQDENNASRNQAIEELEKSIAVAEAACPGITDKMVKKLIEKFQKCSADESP
T14 sequence (P00519 whole entry): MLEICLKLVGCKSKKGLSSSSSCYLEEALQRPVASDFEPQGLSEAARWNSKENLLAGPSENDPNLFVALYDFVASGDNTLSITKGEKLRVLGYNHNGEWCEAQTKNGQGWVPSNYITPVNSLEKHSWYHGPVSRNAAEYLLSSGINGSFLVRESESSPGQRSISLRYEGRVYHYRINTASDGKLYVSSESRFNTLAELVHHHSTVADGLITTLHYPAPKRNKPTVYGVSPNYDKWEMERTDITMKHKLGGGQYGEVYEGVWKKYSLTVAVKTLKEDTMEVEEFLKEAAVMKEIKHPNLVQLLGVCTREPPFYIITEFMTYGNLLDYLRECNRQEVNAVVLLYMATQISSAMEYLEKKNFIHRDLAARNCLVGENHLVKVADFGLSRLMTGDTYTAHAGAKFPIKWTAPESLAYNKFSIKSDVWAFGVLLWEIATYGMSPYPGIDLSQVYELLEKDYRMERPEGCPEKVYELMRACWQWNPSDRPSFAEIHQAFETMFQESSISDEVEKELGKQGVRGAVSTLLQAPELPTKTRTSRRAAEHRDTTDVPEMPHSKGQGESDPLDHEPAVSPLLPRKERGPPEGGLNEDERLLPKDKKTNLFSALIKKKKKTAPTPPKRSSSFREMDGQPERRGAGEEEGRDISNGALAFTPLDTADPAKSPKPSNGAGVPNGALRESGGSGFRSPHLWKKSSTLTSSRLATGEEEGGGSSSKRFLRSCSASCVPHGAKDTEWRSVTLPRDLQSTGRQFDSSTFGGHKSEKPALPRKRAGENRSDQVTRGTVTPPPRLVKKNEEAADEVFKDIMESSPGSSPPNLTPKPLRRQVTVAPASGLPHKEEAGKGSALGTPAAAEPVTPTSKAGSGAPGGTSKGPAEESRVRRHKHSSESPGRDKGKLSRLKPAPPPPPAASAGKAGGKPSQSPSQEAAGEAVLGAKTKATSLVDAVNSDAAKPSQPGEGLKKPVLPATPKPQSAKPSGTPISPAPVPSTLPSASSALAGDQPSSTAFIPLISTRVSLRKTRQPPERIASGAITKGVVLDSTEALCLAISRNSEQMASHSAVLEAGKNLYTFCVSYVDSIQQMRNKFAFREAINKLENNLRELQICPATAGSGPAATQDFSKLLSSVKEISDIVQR
T19 sequence (Q02750 whole entry): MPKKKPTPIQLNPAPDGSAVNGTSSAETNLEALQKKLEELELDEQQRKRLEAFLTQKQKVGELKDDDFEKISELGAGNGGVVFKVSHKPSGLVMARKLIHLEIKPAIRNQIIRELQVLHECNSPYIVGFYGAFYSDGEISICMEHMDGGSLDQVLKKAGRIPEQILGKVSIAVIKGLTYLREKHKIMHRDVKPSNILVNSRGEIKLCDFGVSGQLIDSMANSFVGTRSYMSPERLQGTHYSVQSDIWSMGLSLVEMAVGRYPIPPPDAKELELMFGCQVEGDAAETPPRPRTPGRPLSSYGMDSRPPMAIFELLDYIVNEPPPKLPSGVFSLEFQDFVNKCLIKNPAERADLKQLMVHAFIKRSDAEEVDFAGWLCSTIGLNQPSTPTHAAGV
T20 sequence (P08581 25-1390): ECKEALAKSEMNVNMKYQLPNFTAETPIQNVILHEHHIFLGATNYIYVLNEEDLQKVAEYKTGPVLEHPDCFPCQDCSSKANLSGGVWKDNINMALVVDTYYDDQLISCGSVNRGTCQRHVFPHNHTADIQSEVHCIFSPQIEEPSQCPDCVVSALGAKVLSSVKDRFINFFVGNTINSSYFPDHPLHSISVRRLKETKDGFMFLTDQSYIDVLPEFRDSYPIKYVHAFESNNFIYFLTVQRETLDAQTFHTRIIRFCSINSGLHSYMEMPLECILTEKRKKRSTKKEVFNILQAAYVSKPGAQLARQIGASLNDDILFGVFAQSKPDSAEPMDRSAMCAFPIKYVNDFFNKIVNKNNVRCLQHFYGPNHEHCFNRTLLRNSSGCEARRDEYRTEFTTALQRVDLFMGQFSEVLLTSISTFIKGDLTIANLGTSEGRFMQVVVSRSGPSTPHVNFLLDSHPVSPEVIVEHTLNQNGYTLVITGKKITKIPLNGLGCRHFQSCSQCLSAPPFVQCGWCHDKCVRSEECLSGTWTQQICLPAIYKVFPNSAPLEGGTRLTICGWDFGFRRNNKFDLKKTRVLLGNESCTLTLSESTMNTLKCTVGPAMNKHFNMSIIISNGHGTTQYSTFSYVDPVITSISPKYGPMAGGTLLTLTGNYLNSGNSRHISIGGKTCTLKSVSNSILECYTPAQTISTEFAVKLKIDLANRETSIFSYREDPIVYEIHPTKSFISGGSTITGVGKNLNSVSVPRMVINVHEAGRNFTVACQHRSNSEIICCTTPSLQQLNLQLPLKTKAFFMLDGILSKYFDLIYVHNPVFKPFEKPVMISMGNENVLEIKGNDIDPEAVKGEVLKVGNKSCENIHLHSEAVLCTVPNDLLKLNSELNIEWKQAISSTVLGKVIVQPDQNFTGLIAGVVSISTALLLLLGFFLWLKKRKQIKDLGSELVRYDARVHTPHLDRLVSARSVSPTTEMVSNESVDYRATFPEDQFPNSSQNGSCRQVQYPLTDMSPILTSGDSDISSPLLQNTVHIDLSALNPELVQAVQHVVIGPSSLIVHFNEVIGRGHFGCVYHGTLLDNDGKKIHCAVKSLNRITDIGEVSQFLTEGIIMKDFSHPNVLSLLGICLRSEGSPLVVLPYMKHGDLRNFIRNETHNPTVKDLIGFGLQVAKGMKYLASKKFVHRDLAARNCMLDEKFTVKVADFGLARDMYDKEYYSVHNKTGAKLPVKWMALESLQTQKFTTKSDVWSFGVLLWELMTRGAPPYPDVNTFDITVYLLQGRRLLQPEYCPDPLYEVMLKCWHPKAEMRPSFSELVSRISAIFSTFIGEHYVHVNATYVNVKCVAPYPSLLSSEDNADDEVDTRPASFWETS
T5 sequence (P10721 26-976): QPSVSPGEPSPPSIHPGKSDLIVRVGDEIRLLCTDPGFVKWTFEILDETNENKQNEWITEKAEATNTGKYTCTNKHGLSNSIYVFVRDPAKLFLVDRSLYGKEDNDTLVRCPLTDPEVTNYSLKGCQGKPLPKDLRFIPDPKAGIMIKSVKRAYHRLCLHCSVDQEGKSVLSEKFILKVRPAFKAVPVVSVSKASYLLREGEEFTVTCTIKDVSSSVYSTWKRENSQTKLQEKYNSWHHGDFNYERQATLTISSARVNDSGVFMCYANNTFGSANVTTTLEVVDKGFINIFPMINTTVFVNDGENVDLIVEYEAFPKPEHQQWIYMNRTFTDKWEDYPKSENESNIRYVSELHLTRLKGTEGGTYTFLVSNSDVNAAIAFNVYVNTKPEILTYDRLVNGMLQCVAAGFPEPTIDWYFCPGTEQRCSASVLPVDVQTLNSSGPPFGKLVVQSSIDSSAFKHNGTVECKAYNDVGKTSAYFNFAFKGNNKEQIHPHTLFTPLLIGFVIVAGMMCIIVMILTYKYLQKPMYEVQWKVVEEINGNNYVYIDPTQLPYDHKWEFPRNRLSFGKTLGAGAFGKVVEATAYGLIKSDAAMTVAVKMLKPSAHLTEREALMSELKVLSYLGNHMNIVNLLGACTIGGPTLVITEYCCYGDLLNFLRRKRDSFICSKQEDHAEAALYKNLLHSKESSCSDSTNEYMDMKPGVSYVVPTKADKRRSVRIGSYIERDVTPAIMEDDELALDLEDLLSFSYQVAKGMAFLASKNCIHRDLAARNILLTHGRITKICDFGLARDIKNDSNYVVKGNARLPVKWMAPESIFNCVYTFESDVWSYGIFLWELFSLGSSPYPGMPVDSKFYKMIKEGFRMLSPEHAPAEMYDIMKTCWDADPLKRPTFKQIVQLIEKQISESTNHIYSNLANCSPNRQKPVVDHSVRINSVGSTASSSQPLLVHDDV
T8 sequence (P31749 118-480 S473D limits assumed): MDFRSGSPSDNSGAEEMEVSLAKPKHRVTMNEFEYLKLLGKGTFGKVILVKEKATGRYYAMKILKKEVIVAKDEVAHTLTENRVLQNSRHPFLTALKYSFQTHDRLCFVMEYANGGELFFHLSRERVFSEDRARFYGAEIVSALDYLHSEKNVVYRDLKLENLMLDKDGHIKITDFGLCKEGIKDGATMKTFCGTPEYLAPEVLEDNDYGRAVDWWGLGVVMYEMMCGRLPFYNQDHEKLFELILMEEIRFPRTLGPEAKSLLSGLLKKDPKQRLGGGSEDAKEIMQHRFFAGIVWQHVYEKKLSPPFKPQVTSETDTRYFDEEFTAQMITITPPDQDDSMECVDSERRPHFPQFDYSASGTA

Q: With `Cc1cc(O)cc(-c2nn(CC#N)cc2-c2cc(NC[C@H](C)O)nc(-c3cccnc3)n2)c1` [Example 10, [4-[6-(2(S)-hydroxypropylamino)-2-pyridin-3-yl-pyrimidin-4-yl]-3-(3-hydroxy-5-methylphenyl)-pyrazol-1-yl]acetonitrile] as the compound, how does the “Notes (selectivity for ROS)” value [1] read?
A: no inhibitory activity against almost all of the tested kinases, except for ROS kinase; also recorded: Selective for ROS

Q: What about the inhibition at 10 µM [2] of the same compound?
A: -2.59%

Q: What about the activity at 10 µM [2, 25] of the same compound?
A: 103%

Q: What about the inhibition at 10 µM [3] of the same compound?
A: -1.54%

Q: And the activity at 10 µM [3, 25]?
A: 102%

Q: What about the inhibition at 10 µM [4] of the same compound?
A: -1.45%

Q: What about the activity at 10 µM [4, 25] of the same compound?
A: 101%

Q: And the inhibition at 10 µM [5]?
A: 10.3%

Q: What about the activity at 10 µM [5, 25] of the same compound?
A: 89.7%

Q: And the inhibition at 10 µM [6]?
A: 2.85%

Q: What about the activity at 10 µM [6, 25] of the same compound?
A: 97.2%

Q: And the inhibition at 10 µM [7]?
A: -1.67%

Q: And the activity at 10 µM [7, 25]?
A: 102%

Q: And the inhibition at 10 µM [8]?
A: -3.43%

Q: What about the activity at 10 µM [8, 25] of the same compound?
A: 103%

Q: And the inhibition at 10 µM [9]?
A: -2.97%

Q: What about the activity at 10 µM [9, 25] of the same compound?
A: 103%

Q: What about the “Inhibition (%)” value [10] of the same compound?
A: 20.39%

Q: And the “Activity (%)” value [10, 25]?
A: 79.61%

Q: What about the inhibition at 10 µM [11] of the same compound?
A: 8.97%

Q: What about the activity at 10 µM [11, 25] of the same compound?
A: 91%

Q: And the inhibition at 10 µM [12]?
A: 9.15%

Q: And the activity at 10 µM [12, 25]?
A: 90.8%

Q: And the inhibition at 10 µM [13]?
A: -1.17%

Q: What about the activity at 10 µM [13, 25] of the same compound?
A: 101%

Q: What about the inhibition at 10 µM [14] of the same compound?
A: -7.86%

Q: And the activity at 10 µM [14, 25]?
A: 108%

Q: And the inhibition at 10 µM [15]?
A: 1.37%

Q: What about the activity at 10 µM [15, 25] of the same compound?
A: 98.6%

Q: And the inhibition at 10 µM [16]?
A: 20.4%

Q: What about the activity at 10 µM [16, 25] of the same compound?
A: 79.6%

Q: What about the inhibition at 10 µM [17] of the same compound?
A: 8.23%

Q: And the activity at 10 µM [17, 25]?
A: 91.8%

Q: What about the inhibition at 10 µM [18] of the same compound?
A: 28.8%

Q: And the activity at 10 µM [18, 25]?
A: 71.1%

Q: What about the inhibition at 10 µM [19] of the same compound?
A: 1.37%

Q: And the activity at 10 µM [19, 25]?
A: 98.6%

Q: What about the inhibition at 10 µM [20] of the same compound?
A: 3.83%

Q: And the activity at 10 µM [20, 25]?
A: 96.2%

Q: And the inhibition at 10 µM [21]?
A: -6.97%

Q: And the activity at 10 µM [21, 25]?
A: 107%

Q: And the inhibition at 10 µM [22]?
A: 5.82%

Q: And the activity at 10 µM [22, 25]?
A: 94.2%

Q: What about the inhibition at 10 µM [23] of the same compound?
A: 6.65%

Q: And the activity at 10 µM [23, 25]?
A: 93.3%

Q: What about the inhibition at 10 µM [24] of the same compound?
A: 16.2%

— US8273880B2, “Pyrazole compounds with inhibitory activity against ROS kinase” (Korea Institute of Science and Technology, priority 2009, dated 2012)
